Where two headings read alike, the source gives them in different places.
Experiments:
DPP2 [1] = biological target: T1, DPP2 (Homo sapiens, UniProt Q9UHL4); experiment: Stability assay with or without DPP2, read out by receptor bioassay (FIG. 9A); details: incubated with or without DPP2
FAP [2] = biological target: T2, FAP (Homo sapiens, UniProt Q12884); experiment: Stability assay with or without FAP, read out by receptor bioassay (FIG. 9A, FIG. 18); details: incubated with or without FAP
T2 sequence (Q12884 1-760): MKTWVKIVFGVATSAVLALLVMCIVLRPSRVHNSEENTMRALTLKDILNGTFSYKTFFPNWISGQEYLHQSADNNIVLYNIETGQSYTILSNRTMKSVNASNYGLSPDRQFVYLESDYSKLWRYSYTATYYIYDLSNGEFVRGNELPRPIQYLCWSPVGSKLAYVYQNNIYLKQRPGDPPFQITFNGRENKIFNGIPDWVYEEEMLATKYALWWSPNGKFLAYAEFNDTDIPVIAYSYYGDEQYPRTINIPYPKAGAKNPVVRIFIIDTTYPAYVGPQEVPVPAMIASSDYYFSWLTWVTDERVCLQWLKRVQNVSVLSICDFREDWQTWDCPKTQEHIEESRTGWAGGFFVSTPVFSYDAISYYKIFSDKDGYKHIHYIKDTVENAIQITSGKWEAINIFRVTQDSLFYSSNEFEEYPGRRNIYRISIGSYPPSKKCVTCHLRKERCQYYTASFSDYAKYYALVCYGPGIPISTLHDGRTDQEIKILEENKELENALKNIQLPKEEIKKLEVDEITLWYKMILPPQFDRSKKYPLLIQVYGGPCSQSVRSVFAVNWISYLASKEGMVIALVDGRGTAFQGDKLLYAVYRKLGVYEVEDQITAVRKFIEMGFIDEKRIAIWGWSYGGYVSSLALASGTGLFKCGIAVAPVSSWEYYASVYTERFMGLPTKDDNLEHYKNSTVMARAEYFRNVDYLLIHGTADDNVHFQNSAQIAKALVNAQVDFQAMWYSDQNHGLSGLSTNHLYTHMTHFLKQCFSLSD

DPP4 [3] = biological target: T3, DPP4 (Homo sapiens, UniProt P27487); experiment: Sensitivity to DPP4: overnight incubation with recombinant DPP4 or vehicle, then receptor agonist bioassay; details: overnight incubation with or without DPP4, readout at cognate receptor
T3 sequence (P27487 whole entry, species assumed): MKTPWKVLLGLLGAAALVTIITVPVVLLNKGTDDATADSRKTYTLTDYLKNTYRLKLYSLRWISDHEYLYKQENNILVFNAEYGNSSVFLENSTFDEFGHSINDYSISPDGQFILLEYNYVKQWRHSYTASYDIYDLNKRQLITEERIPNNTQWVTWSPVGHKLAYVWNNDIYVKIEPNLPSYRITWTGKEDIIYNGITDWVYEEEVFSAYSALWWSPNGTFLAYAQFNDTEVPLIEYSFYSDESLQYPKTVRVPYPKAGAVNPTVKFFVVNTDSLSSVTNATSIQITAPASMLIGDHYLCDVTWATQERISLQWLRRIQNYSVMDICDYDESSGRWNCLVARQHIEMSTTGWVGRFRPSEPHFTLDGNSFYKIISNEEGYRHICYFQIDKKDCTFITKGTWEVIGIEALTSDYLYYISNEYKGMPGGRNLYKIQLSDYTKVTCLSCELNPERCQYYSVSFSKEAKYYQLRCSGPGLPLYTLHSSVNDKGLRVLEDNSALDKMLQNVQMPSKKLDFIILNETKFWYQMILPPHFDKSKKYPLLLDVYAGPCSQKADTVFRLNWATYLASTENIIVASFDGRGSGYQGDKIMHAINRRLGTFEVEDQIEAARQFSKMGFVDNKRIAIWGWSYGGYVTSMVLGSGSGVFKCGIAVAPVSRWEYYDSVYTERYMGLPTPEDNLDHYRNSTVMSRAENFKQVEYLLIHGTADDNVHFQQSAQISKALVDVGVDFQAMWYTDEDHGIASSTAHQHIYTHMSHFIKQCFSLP
Procedure: Plotting concentration versus the luciferase activity yielded quantitative parameters for combined binding (potency) and signaling (efficacy) in a single step. […] DPP4 treated peptides: 10 μl of 0.26 mM peptide were incubated with 2 μL DPP4 in buffer ±DMSO for 18 hrs. Control peptides: 10 μl of 0.26 mM peptide was added to buffer ±DMSO. The final DMSO concentration was the same for all peptides and all peptides were diluted to 0.26 mM concentrations for the DPP4 assay.
Compounds are incubated overnight at 37° C. in the presence of recombinant DPP4 or vehicle (TRIS buffer). The samples are then assessed in GLP-1R agonist assays.
Compounds were incubated overnight at 37° C. in the presence of recombinant DPP4 or vehicle (TRIS buffer, pH 8.0). The samples were then assessed in GLP1R agonist assays as described elsewhere herein.

DPP2 [4] = biological target: T1, DPP2
FAP [5] = biological target: T2, FAP
DPP4 [6] = biological target: T3, DPP4
Procedure: Peptides were incubated with vehicle or recombinant DPP4. Serial dilutions of GLP2-1 and GLP2-4 were then applied to HEK293 cells, which had been transfected with cDNA encoding human GLP-2R and a cAMP-responsive reporter gene.
Peptides were incubated with recombinant DPP4. Serial dilutions of GLP-2 and GLP2-4 were then applied to HEK293 cells, which had been transfected with cDNA encoding human GLP-2R and a cAMP-responsive reporter gene. […] N=4, mean+SEM.
DPP4 resistance (FIG. 13): Lipidated peptides are compared with the prototype, F-GLP2-palm. After an overnight incubation (16 hrs) in the presence vs. the absence of DPP4, receptor mediated function is assessed as shown elsewhere herein. As a DPP4 susceptible control, parallel experiments are done using GLP-2. […] Following overnight preincubation, serial dilutions of ligands were prepared and added to GLP-2R expressing cells for 4 hours. A luciferase reporter gene assay was used to monitor Gαs coupled second messenger signaling.

SBS patients = details: after 52 weeks of treatment; cited from earlier work
wild type mice = details: GLP-2 twice daily over ten days; GATTEX daily; cited from earlier work
[7] = cited from earlier work

SMILES: CC[C@H](C)[C@H](NC(=O)[C@H](CO)NC(=O)[C@H](Cc1ccc(O)cc1)NC(=O)[C@H](CC(=O)O)NC(=O)[C@H](CO)NC(=O)[C@@H](NC(=O)[C@H](Cc1ccccc1)NC(=O)[C@@H](NC(=O)CNC(=O)[C@H](CCC(=O)O)NC(=O)[C@H](C)NC(=O)[C@H](Cc1ccc(O)cc1)NCC(F)(F)F)[C@@H](C)O)[C@@H](C)CC)C(=O)N[C@@H](C)C(=O)N[C@@H](CCSC)C(=O)N[C@@H](CC(=O)O)C(=O)N[C@@H](CCCCN)C(=O)N[C@H](C(=O)N[C@@H](Cc1c[nH]cn1)C(=O)N[C@@H](CCC(N)=O)C(=O)N[C@@H](CCC(N)=O)C(=O)N[C@@H](CC(=O)O)C(=O)N[C@@H](Cc1ccccc1)C(=O)N[C@H](C(=O)N[C@@H](CC(N)=O)C(=O)N[C@@H](Cc1c[nH]c2ccccc12)C(=O)N[C@@H](CC(C)C)C(=O)N[C@@H](CC(C)C)C(=O)N[C@@H](C)C(=O)N[C@@H](CCC(N)=O)C(=O)N[C@@H](CCCCN)C(=O)NCC(=O)N[C@@H](CCCCN)C(=O)N[C@@H](CCCCN)C(=O)N[C@@H](CC(N)=O)C(=O)N[C@@H](CC(=O)O)C(=O)N[C@@H](Cc1c[nH]c2ccccc12)C(=O)N[C@@H](CCCCN)C(=O)N[C@@H](Cc1c[nH]cn1)C(=O)N[C@@H](CC(N)=O)C(=O)N[C@H](C(=O)N[C@H](C(=O)N[C@@H](CCC(N)=O)C(=O)O)[C@@H](C)O)[C@@H](C)CC)C(C)C)[C@@H](C)CC [I-4]
- stability to DPP2 (in words) (DPP2 [1]): stable
- stability to FAP (in words) (FAP [2]): stable
- DPP4 degradation / resistance (in words) (DPP4 [3]): resistant
- DPP4 degradation / resistance (in words) (DPP4 [3]; listed as I4): stable

SMILES: CC[C@H](C)[C@H](NC(=O)[C@H](CO)NC(=O)[C@H](Cc1ccc(O)cc1)NC(=O)[C@H](CC(=O)O)NC(=O)[C@H](CO)NC(=O)[C@@H](NC(=O)[C@H](Cc1ccccc1)NC(=O)[C@@H](NC(=O)CNC(=O)[C@H](CCC(=O)O)NC(=O)[C@H](C)NC(=O)[C@@H](N)Cc1ccc(O)cc1)[C@@H](C)O)[C@@H](C)CC)C(=O)N[C@@H](C)C(=O)N[C@@H](CCSC)C(=O)N[C@@H](CC(=O)O)C(=O)N[C@@H](CCCCN)C(=O)N[C@H](C(=O)N[C@@H](Cc1c[nH]cn1)C(=O)N[C@@H](CCC(N)=O)C(=O)N[C@@H](CCC(N)=O)C(=O)N[C@@H](CC(=O)O)C(=O)N[C@@H](Cc1ccccc1)C(=O)N[C@H](C(=O)N[C@@H](CC(N)=O)C(=O)N[C@@H](Cc1c[nH]c2ccccc12)C(=O)N[C@@H](CC(C)C)C(=O)N[C@@H](CC(C)C)C(=O)N[C@@H](C)C(=O)N[C@@H](CCC(N)=O)C(=O)N[C@@H](CCCCN)C(=O)NCC(=O)N[C@@H](CCCCN)C(=O)N[C@@H](CCCCN)C(=O)N[C@@H](CC(N)=O)C(=O)N[C@@H](CC(=O)O)C(=O)N[C@@H](Cc1c[nH]c2ccccc12)C(=O)N[C@@H](CCCCN)C(=O)N[C@@H](Cc1c[nH]cn1)C(=O)N[C@@H](CC(N)=O)C(=O)N[C@H](C(=O)N[C@H](C(=O)N[C@@H](CCC(N)=O)C(=O)O)[C@@H](C)O)[C@@H](C)CC)C(C)C)[C@@H](C)CC [GIP, Gastric Inhibitory Polypeptide]
- stability to DPP2 (in words) (DPP2 [4]): major potency losses
- stability to FAP (in words) (FAP [5]): major potency losses

SMILES: CC[C@H](C)[C@H](NC(=O)[C@H](Cc1ccccc1)NC(=O)[C@H](CC(=O)O)NC(=O)[C@H](CCCNC(=N)N)NC(=O)[C@H](C)NC(=O)[C@H](C)NC(=O)[C@H](CC(C)C)NC(=O)[C@H](CC(N)=O)NC(=O)[C@H](CC(=O)O)NC(=O)[C@H](CC(C)C)NC(=O)[C@@H](NC(=O)[C@@H](NC(=O)[C@H](CC(N)=O)NC(=O)[C@H](CCSC)NC(=O)[C@H](CCC(=O)O)NC(=O)[C@H](CC(=O)O)NC(=O)[C@H](CO)NC(=O)[C@H](Cc1ccccc1)NC(=O)[C@H](CO)NC(=O)CNC(=O)[C@H](CC(=O)O)NC(=O)CNC(=O)[C@@H](N)Cc1c[nH]cn1)[C@@H](C)O)[C@@H](C)CC)C(=O)N[C@@H](CC(N)=O)C(=O)N[C@@H](Cc1c[nH]c2ccccc12)C(=O)N[C@@H](CC(C)C)C(=O)N[C@H](C(=O)N[C@@H](CCC(N)=O)C(=O)N[C@H](C(=O)N[C@@H](CCCCN)C(=O)N[C@H](C(=O)N[C@H](C(=O)N[C@@H](CC(=O)O)C(=O)O)[C@@H](C)O)[C@@H](C)CC)[C@@H](C)O)[C@@H](C)CC [Gattex, teduglutide]
- DPP4 degradation / resistance (in words) (DPP4 [6]): only partial DPP4 resistance
- SBS patients able to reduce their PN regimen by at least 1 day/week (SBS patients): 68%
- patients who failed to reduce their PN regimen by even 1 day/week (SBS patients): 32%
- treated patients entirely independent of PN (SBS patients): 4 of 52
- bowel weight (wild type mice): significant increase in both large and small bowel weights
- in vivo half-life [7]: ~3 h
